Results: patent EP3623369A1, “NOVEL MORPHOLINYL AMINE COMPOUNDS FOR THE TREATMENT OF AUTOIMMUNE DISEASE” (F. Hoffmann-La Roche AG, priority 2018, dated 2020)

Molecular target: T1, hTLR7 (Homo sapiens, UniProt Q9NYK1)
T1 sequence (Q9NYK1 27-1049): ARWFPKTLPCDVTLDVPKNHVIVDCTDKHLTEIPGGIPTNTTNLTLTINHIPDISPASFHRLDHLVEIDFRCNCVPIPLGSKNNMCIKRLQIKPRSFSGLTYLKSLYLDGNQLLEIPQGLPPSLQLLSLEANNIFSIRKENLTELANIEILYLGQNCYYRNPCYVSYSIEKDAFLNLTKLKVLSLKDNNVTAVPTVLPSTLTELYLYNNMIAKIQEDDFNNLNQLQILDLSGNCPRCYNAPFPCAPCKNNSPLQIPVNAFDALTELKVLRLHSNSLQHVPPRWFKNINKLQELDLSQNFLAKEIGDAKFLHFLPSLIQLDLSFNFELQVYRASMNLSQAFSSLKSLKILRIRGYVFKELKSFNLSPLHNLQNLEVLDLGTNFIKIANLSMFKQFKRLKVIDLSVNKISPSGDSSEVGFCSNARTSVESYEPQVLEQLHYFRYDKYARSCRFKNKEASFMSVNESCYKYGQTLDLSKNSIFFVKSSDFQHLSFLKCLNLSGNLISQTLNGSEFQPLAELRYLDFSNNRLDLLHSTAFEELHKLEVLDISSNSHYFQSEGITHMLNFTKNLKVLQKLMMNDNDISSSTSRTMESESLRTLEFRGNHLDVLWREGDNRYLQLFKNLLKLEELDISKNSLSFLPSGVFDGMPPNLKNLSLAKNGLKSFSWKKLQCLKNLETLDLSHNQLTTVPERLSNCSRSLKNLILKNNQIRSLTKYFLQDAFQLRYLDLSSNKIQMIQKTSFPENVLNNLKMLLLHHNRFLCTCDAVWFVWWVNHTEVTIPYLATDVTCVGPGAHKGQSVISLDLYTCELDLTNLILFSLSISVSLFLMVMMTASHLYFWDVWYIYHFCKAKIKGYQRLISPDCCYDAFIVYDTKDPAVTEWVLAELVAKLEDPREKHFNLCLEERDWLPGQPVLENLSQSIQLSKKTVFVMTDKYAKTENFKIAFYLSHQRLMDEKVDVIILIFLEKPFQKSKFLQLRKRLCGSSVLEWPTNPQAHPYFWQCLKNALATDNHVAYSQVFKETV
Assay: HEK293-Blue-hTLR-7 cells assay (SEAP reporter, R848 stimulation)
Format: cell-based
Conditions: HEK293-Blue-hTLR7 cells, R848, 20 hrs; 0.003 is the lowest tested concentration; read-out: HEK/hTLR7 IC50
Procedure: The following tests were carried out in order to determine the activity of the compounds of formula (I) or (Ia) in HEK293-Blue-hTLR-7/8/9 cells assay.
HEK293-Blue-hTLR-7 cells assay:
A stable HEK293-Blue-hTLR-7 cell line was purchased from InvivoGen (Cat.#: hkb-htlr7, San Diego, California, USA). These cells were originally designed for studying the stimulation of human TLR7 by monitoring the activation of NF-κB. A SEAP (secreted embryonic alkaline phosphatase) reporter gene was placed under the control of the IFN-β minimal promoter fused to five NF-κB and AP-1-binding sites. The SEAP was induced by activating NF-κB and AP-1 via stimulating HEK-Blue hTLR7 cells with TLR7 ligands. Therefore the reporter expression was declined by TLR7 antagonist under the stimulation of a ligand, such as R848 (Resiquimod), for incubation of 20 hrs. The cell culture supernatant SEAP reporter activity was determined using QUANTI-Blue™ kit (Cat.#: rep-qb1, Invivogen, San Diego, Ca, USA) at a wavelength of 640 nm, a detection medium that turns purple or blue in the presence of alkaline phosphatase.
HEK293-Blue-hTLR7 cells were incubated at a density of 250,000∼450,000 cells/mL in a volume of 170 µL in a 96-well plate in Dulbecco's Modified Eagle's medium (DMEM) containing 4.5 g/L glucose, 50 U/mL penicillin, […], […], 2 mM L-glutamine, 10% (v/v) heat-inactivated fetal bovine serum with addition of 20 µL test compound in a serial dilution in the presence of final DMSO at 1% and 10 µL of 20uM R848 in above DMEM, perform incubation under 37 °C in a CO2 incubator for 20 hrs. Then 20 µL of the supernatant from each well was incubated with 180 µL Quanti-blue substrate solution at 37 °C for 2 hrs and the absorbance was read at 620∼655 nm using a spectrophotometer. The signalling pathway that TLR7 activation leads to downstream NF-κB activation has been widely accepted, and therefore similar reporter assay was modified for evaluating TLR7 antagonist.

IC50 | Structure (SMILES)
0.009 µM | C[C@@H]1CN(c2ccc(C#N)c3ncsc23)C[C@H](CN2CCc3cc(N4CCNCC4)ccc3C2)O1 [Example 24, 7-[(2R,6S)-2-methyl-6-[(6-piperazin-1-yl-3,4-dihydro-1H-isoquinolin-2-yl)methyl]morpholin-4-yl]-1,3-benzothiazole-4-carbonitrile]
0.018 µM | C[C@@H]1CN(c2ccc(C#N)c3ncccc23)C[C@H](CN2Cc3cc(N4CCNCC4)cc(F)c3C2)O1 [Example 59, 5-[(2S,6R)-2-[(4-fluoro-6-piperazin-1-yl-isoindolin-2-yl)methyl]-6-methyl-morpholin-4-yl]quinoline-8-carbonitrile]
0.023 µM | C[C@@H]1CN(c2ccc(Cl)c3nccnc23)C[C@H](CN2CCc3cc(N4CCNCC4)ccc3C2)O1 [Example 34, (2R,6S)-4-(8-chloroquinoxalin-5-yl)-2-methyl-6-[(6-piperazin-1-yl-3,4-dihydro-1H-isoquinolin-2-yl)methyl]morpholine]
0.012 µM | C[C@@H]1CN(c2ccc(C#N)c3nccnc23)C[C@H](CNCc2ccc(N3CCNCC3)cc2)O1 [Example 84, 8-[(2R,6S)-2-methyl-6-[[(4-piperazin-1-ylphenyl)methylamino]methyl]morpholin-4-yl]quinoxaline-5-carbonitrile]
0.023 µM | C[C@@H]1CN(c2ccc(C#N)c3ncccc23)C[C@H](CN2Cc3cnc(N4CCNCC4)cc3C2)O1 [Example 61, 5-[(2R,6S)-2-methyl-6-[(6-piperazin-1-yl-1,3-dihydropyrrolo[3,4-c]pyridin-2-yl)methyl]morpholin-4-yl]quinoline-8-carbonitrile]
0.039 µM | C[C@@H]1CN(c2ccc(Cl)c3ncccc23)C[C@H](CN2CCc3cc(N4CCNCC4)ccc3C2)O1 [Example 32, (2R,6S)-4-(8-chloro-5-quinolyl)-2-methyl-6-[(6-piperazin-1-yl-3,4-dihydro-1H-isoquinolin-2-yl)methyl]morpholine]
0.192 µM | C[C@@H]1CN(c2ccc(C#N)n3nccc23)C[C@H](CN2CCc3ccc(N4CCNCC4)cc3C2)O1 [Example 11, 4-[(2R,6S)-2-methyl-6-[(7-piperazin-1-yl-3,4-dihydro-1H-isoquinolin-2-yl)methyl]morpholin-4-yl]pyrazolo[1,5-a]pyridine-7-carbonitrile]
0.056 µM | COC(=O)C1CN(c2ccc3c(c2)CN(C[C@H]2CN(c4ccc(C#N)c5ncccc45)C[C@@H](C)O2)C3)CCN1 (stereo partly drawn) [Example 67, Methyl 4-[2-[[(2S,6R)-4-(8-cyano-5-quinolyl)-6-methyl-morpholin-2-yl]methyl]isoindolin-5-yl] piperazine-2-carboxylate]
0.047 µM | C[C@@H]1CN(c2ccc(C#N)c3ncccc23)C[C@H](CN2Cc3ccc(N4CCNC[C@@H]4CO)cc3C2)O1 [Example 82, 5-[(2S,6R)-2-[[5-[(2R)-2-(hydroxymethyl)piperazin-1-yl]isoindolin-2-yl]methyl]-6-methyl-morpholin-4-yl]quinoline-8-carbonitrile]
0.084 µM | C[C@@H]1CN(c2ccc(C#N)c3ncccc23)C[C@H](CN2Cc3ccc(N4CC5(CNC5)C4)cc3C2)O1 [Example 47, 5-[(2S,6R)-2-[[5-(2,6-diazaspiro[3.3]heptan-2-yl)isoindolin-2-yl]methyl]-6-methyl-morpholin-4-yl]quinoline-8-carbonitrile]
0.05 µM | COCCN1CCN(c2ccc3c(c2)CN(C[C@H]2CN(c4ccc(C#N)c5nccnc45)C[C@@H](C)O2)C3)CC1 [Example 37, 8-[(2S,6R)-2-[[5-[4-(2-methoxyethyl)piperazin-1-yl]isoindolin-2-yl]methyl]-6-methyl-morpholin-4-yl]quinoxaline-5-carbonitrile]
0.227 µM | C[C@@H]1CN(c2ccc(C#N)n3nccc23)C[C@H](CN2Cc3ccc(OCCN(C)C)cc3C2)O1 [Example 28, 4-[(2S,6R)-2-[[5-[2-(dimethylamino)ethoxy]isoindolin-2-yl]methyl]-6-methyl-morpholin-4-yl]pyrazolo[1,5-a]pyridine-7-carbonitrile]
